# Source: patent publication US10449221B2, “Differentiation of stem cells into thyroid tissue” (TRUSTEES OF BOSTON UNIVERSITY, priority 2015, dated 2019)
# Experiments:
# [1] = test system: hypothyroid mice; experiment: TSH response test; assay type: in vivo, mouse; details: T3 4 μg per 100 g body weight i.p. daily for 4 days; all groups; data not shown
# Protocol: To suppress endogenous production of T4 and TSH, T3 (4 μg per 100 g body weight (BW); Sigma T6397) was given daily by intraperitoneal injection for 4 days. 15 hours after the last injection, blood was taken from the submandibular vein to measure T4 and TSH after which a single injection of highly purified bTSH (Los Angeles Biomedical Research Institute, National Hormone and Peptide Program. Torrance, Calif.) at 30 mU per 100 g BW was given. 3 hours later blood samples were taken to assess the increase of total T4. Five mice per group (positive control group, Sham, and D30 ESCs recipients) were included in the experiment.
# [2] = test system: Nkx2-1GFP+; Pax8tdTomato trace+ iPSC-derived cells; experiment: Lineage specification of bifluorescent reporter iPSC line by day 14; assay type: cell-based, mouse; details: factor withdrawn or removed from the Nkx2-1 induction media, data not shown
# [3] = test system: ESC-derived Nkx2-1+ cells; experiment: Thyroid marker mRNA by real time RT-PCR on Day 26 after outgrowth of day 14 sorted Nkx2-1+ cells; assay type: cell-based, mouse; details: growth factors in specification media day 6 to 14; sorted day 14, replated until day 26
# Protocol: For Anteriorization of endoderm, on day 5 (120 total hours of differentiation) EBs were plated onto p100 Petri dishes in Nog/SB media: cSFDM supplemented with 100 ng/ml mNoggin (R&D 1967-NG) and 10 μM SB431542 (Sigma S4317) as previously described (Longmire et al., 2012). For Nkx2-1+ endoderm induction, EBs were plated on gelatin coated 6 well plates at the equivalent density of 200,000 cells/well in Specification media: cSFDM supplemented as stated in the text with 100 ng/ml mWnt3a (R&D 1324-WN), 10 ng/ml hFGF10 (R&D 345-FG), 10 ng/ml mKGF (R&D 5028-KG), 10 ng/ml mBMP4 (R&D 5020-BP), 20 ng/ml hEGF (R&D 236-EG), 250 ng/ml mFGF2 (R&D 3139-FB) and 100 ng/ml Heparin Sodium Salt (Sigma […]2-1mCherry+ cells, or the populations otherwise indicated in the text were sorted using MoFlo or […] II SORP high speed cell sorters and replated onto gelatin-coated 24 well plates on day 12-14 at a density of 5×10^4 cells/well. […] Relative gene expression, normalized to 18S control, was calculated as fold change in 18S-normalized gene expression, over baseline, using the 2^(-ΔΔCT) method. […]
# [4] = test system: ESC-derived definitive endoderm; experiment: Nkx2-1+ endoderm induction from ESC-derived endoderm, specification media day 6-14, flow cytometry on day 14; assay type: cell-based, mouse; details: sequential withdrawal of each individual factor from the WFKBE+2 cocktail
# Protocol: Definitive endoderm induction was performed in complete serum-free differentiation medium (cSFDM) consisting of 75% IMDM (Invitrogen 12440) and 25% Ham's Modified F12 medium (Cellgro 10-080-CV) supplemented with N2 and B27+RA (Invitrogen 17502-048 and 17504-44), 0.05% BSA (Invitrogen 15260-037), […] L-glutamine (Invitrogen 25030-081), 0.05 mg/ml ascorbic acid (Sigma A4544) and 4.5×10^-4M MTG (Sigma M6145) as previously described (Gouon-Evans et al., 2006, Longmire et al., 2012). Undifferentiated ESCs were trypsinized to form a single cell suspension and plated onto Petri dishes (500,000 cells/10 cm dish) resulting in the formation of embryoid bodies (EBs) over 60 hours. EBs were dissociated by trypsinization (0.05%, 1 min, 37° C.) and plated as single cells into cSFDM supplemented with 50 ng/ml Activin A (R&D systems 338-AC) for an additional 60 hours. For Anteriorization of endoderm, on day 5 (120 total hours of differentiation) EBs were plated onto p100 Petri dishes in Nog/SB media: cSFDM supplemented with 100 ng/ml mNoggin (R&D 1967-NG) and 10 μM SB431542 (Sigma S4317) as previously described (Longmire et al., 2012). For Nkx2-1+ endoderm induction, EBs were plated on gelatin coated 6 well plates at the equivalent density of 200,000 cells/well in Specification media: cSFDM supplemented as stated in the text with 100 ng/ml mWnt3a (R&D 1324-WN), 10 ng/ml hFGF10 (R&D 345-FG), 10 ng/ml mKGF (R&D 5028-KG), 10 ng/ml mBMP4 (R&D 5020-BP), 20 ng/ml hEGF (R&D 236-EG), 250 ng/ml mFGF2 (R&D 3139-FB) and 100 ng/ml Heparin Sodium Salt (Sigma […]2-1mCherry+ cells, or the populations otherwise indicated in the text were sorted using MoFlo or […] II SORP high speed cell sorters and replated onto gelatin-coated 24 well plates on day 12-14 at a density of 5×10^4 cells/well. Where indicated in the text, small molecule inhibitors were dissolved in DMSO according to manufacturer's instructions and added to the culture media from day 6 to 14 at the following working concentrations: Dorsomorphin 4 μM (Sigma P5499), PD98059 20 μM, SB203580 10 μM (both from Cell Signaling Technology, PHZ1164 and 5633), and LY294002 […] (Promega V1201).
compound,measurement,setting,value
"N[C@@H](Cc1cc(I)c(Oc2ccc(O)c(I)c2)c(I)c1)C(=O)O [T3, Triiodothyronine]",endogenous TSH and T4 after exogenous T3,[1],TSH suppression and abrogated T4 secretion
"Wingless-Type MMTV Integration Site Family protein, member 3A [Wnt3a]","efficiency of lineage specification, percent yield of GFP+/tdTomato+ cells",[2],no significant impact
same,"thyroid competence, thyroid marker mRNA on D26",[3],does not alter thyroid lineage specification
same,Nkx2-1+ endodermal induction efficiency,[4],dispensable for Nkx2-1 induction efficiency
